From US20250171426A1, “PYRIMIDINEDIONE-BASED COMPOUNDS AS AXL, C-MET, AND MER INHIBITORS AND METHODS OF USE THEREOF” (CMG Pharmaceutical Co., Ltd., priority 2022, published 2025) come the findings set out here.

What all share (format): biochemical
Common to all, as to conditions: 10 μM ATP, 60 min, ADP-GLO luminescence
(In general: In ADP-Glo the light output rises with the ADP produced.)

For one experiment, the target named is c-MET (Homo sapiens, UniProt P08581). Nature of the experiment: Enzymatic assay (ADP-Glo kinase reaction), c-MET. The gist of the method: (§1)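 For both AXL and c-MET, reactions in tyrosine kinase buffer used 0.2 μg/μL poly(Glu4,Tyr1) and 10 μM ATP with serially diluted inhibitor, 60 min at room temperature. ADP formed was read by ADP-Glo luminescence after 40 min reagent incubation.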

The next experiment has as its target T1, AXL (Homo sapiens, UniProt P30530).
T1 sequence (P30530 26-894): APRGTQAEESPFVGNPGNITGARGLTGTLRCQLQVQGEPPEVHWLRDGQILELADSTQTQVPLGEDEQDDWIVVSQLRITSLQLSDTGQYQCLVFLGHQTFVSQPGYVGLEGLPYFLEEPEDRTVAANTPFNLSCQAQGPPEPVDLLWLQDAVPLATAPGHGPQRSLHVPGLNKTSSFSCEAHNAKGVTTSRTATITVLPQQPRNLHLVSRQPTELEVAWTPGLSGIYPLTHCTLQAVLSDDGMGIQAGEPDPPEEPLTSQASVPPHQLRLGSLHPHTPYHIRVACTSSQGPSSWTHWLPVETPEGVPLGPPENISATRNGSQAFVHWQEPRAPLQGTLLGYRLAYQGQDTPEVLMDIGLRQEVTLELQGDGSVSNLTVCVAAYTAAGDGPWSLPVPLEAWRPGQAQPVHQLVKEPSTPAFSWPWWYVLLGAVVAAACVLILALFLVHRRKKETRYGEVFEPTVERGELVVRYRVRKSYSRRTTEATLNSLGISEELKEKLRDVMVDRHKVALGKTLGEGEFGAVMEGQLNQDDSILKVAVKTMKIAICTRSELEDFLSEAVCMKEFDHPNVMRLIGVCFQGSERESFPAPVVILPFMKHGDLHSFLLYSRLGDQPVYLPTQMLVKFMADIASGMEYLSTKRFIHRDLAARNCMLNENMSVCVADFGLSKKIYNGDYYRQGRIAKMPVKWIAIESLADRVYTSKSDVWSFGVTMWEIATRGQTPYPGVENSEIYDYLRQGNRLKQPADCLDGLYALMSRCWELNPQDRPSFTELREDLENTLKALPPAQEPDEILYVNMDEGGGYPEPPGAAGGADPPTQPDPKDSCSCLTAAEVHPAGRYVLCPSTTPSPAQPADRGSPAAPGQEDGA
The experiment in a line: Enzymatic assay (ADP-Glo kinase reaction), AXL. The gist of the method: as §1

The next experiment deals with T2, MER (Homo sapiens, UniProt Q12866).
T2 sequence (Q12866 21-999): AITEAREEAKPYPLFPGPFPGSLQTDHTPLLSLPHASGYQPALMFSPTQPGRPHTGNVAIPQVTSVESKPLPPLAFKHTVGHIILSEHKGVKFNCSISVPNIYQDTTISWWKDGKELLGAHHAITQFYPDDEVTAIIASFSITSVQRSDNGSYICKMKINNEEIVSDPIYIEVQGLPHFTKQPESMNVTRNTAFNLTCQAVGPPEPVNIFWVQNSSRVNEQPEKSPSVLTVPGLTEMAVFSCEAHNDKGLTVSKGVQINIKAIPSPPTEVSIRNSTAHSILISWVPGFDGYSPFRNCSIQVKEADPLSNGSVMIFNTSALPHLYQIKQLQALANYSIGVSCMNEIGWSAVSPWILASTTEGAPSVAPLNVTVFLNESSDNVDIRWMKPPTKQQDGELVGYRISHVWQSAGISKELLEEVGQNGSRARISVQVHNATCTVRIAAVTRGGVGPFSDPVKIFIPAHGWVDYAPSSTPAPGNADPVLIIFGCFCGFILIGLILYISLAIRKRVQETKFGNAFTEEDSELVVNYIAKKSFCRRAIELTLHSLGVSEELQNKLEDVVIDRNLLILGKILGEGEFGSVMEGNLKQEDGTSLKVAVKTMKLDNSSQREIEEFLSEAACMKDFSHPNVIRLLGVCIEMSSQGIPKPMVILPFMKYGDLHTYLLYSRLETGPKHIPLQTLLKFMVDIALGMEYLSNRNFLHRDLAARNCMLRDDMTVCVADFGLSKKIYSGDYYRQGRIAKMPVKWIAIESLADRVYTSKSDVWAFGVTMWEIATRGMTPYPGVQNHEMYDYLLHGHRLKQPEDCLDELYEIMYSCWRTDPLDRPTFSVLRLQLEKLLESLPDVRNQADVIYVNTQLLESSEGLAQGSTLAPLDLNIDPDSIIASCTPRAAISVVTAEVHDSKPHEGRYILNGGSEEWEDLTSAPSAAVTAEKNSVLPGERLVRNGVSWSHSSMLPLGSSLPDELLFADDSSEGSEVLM
Nature of the experiment: Enzymatic assay (ADP-Glo kinase reaction), MER. The essentials: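 ADP-Glo luminescence assay of MER in tyrosine kinase buffer with 0.2 μg/μL poly(Glu4,Tyr1) substrate and 10 μM ATP. Serially diluted inhibitor reacted 60 min at room temperature. IC50 taken from luminescence after ADP-Glo and detection steps.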

Usually IC50 stands for the point on the concentration scale where inhibition reaches its midpoint.

Chain of c-MET (P08581 25-1390): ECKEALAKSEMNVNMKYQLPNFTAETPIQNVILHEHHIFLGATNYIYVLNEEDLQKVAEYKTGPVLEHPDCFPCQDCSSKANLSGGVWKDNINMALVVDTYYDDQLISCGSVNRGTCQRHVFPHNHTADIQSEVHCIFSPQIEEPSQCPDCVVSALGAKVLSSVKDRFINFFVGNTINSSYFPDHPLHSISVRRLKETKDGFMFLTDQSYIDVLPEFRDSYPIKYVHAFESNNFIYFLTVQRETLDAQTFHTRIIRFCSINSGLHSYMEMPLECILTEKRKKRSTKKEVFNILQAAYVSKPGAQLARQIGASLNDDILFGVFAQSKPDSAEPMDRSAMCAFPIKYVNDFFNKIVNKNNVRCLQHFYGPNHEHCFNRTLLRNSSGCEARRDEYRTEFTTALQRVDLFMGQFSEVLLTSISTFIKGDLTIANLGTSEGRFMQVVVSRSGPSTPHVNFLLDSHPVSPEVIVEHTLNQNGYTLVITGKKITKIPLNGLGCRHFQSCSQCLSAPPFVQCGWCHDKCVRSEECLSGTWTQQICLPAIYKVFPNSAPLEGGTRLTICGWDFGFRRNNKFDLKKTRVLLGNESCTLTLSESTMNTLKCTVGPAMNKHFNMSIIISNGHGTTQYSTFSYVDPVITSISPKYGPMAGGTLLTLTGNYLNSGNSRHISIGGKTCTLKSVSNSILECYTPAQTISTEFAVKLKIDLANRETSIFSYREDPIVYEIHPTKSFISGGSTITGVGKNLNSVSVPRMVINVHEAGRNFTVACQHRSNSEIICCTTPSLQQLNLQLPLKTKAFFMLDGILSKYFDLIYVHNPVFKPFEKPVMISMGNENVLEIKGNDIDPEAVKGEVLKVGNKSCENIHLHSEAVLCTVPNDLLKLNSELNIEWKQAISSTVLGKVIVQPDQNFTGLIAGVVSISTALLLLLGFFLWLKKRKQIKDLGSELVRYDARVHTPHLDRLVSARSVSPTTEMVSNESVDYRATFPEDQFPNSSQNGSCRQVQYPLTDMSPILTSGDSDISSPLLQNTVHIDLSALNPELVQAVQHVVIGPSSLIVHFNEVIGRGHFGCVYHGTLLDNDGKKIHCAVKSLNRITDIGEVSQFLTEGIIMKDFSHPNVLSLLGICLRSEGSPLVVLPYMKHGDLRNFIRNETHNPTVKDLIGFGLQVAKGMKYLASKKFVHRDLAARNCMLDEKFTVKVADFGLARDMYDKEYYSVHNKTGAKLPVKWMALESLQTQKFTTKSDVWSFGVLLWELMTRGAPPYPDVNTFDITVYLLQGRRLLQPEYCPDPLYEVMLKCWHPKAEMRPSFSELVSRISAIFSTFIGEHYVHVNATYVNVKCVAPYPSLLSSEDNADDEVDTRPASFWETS

As for `CC(C)n1cc(C(=O)Nc2ccc(Oc3ccnc(N)c3C#Cc3ccccn3)c(F)c2)c(=O)n(-c2ccc(F)cc2)c1=O` [Example 9, N-(4-(2-amino-3-(pyridin-2-ylethnyl)pyridin-4-yloxy)-3-fluorophenyl)-3-(4-fluorophenyl)-1-isopropyl-2,4-dioxo-1,2,3,4-tetrahydropyrimidine-5-carboxamide], the IC50 on c-MET was less than 10 nM; on AXL, less than 10 nM; at MER, less than 100 nM.

On to `CN(C)C(=O)Cn1cc(C(=O)Nc2ccc(Oc3ccnc(N)c3C#CC(C)(C)N3CCOCC3)c(F)c2)c(=O)n(-c2ccc(F)cc2)c1=O` [Example 33, N-(4-((2-amino-3-(3-methyl-3-morpholinobut-1-yn-1-yl)pyridin-4-yl)oxy)-3-fluorophenyl)-1-(2-(dimethylamino)-2-oxoethyl)-3-(4-fluorophenyl)-2,4-dioxo-1,2,3,4-tetrahydropyrimidine-5-carboxamide], for which the IC50 at c-MET is less than 1000 nM; on AXL, less than 10000 nM; at MER it was less than 100 nM.

With `Nc1nccc(Oc2ccc(NC(=O)c3cn(C4CCOCC4)c(=O)n(-c4ccc(F)cc4)c3=O)cc2F)c1C#CCN1CCOCC1` [Example 56, N-(4-(2-amino-3-(3-morpholinoprop-1-ynyl)pyridin-4-yloxy)-3-fluorophenyl)-3-(4-fluorophenyl)-2,4-dioxo-1-(tetrahydro-2H-pyran-4-yl)-1,2,3,4-tetrahydropyrimidine-5-carboxamide], the IC50 against c-MET, against AXL and on MER was less than 100 nM each time.

Consider `Cn1nc(C(=O)Nc2ccc(Oc3ccnc(N)c3C#CC(C)(C)N3CCNCC3)c(F)c2)c(=O)n(-c2ccc(F)cc2)c1=O` [Example 47, N-(4-(2-amino-3-(3-methyl-3-(piperazin-1-yl)but-1-ynyl)pyridin-4-yloxy)-3-fluorophenyl)-4-(4-fluorophenyl)-2-methyl-3,5-dioxo-2,3,4,5-tetrahydro-1,2,4-triazine-6-carboxamide], for which the IC50 is less than 1000 nM on c-MET, less than 10 nM on AXL and less than 100 nM on MER.

Take `C=CCn1cc(C(=O)Nc2ccc(Oc3ccnc(N)c3C#CCN3CCOCC3)c(F)c2)c(=O)n(CC=C)c1=O` [Example 67, 1,3-diallyl-N-(4-(2-amino-3-(3-morpholinoprop-1-ynyl)pyridin-4-yloxy)-3-fluorophenyl)-2,4-dioxo-1,2,3,4-tetrahydropyrimidine-5-carboxamide]: the figures for the IC50 against c-MET, on AXL and against MER were less than 100 nM, less than 10 nM and less than 10 nM, respectively.

On to `Cc1nc(Cn2cc(C(=O)Nc3ccc(Oc4ccnc(N)c4C#CCC4CCN(C)CC4)c(F)c3)c(=O)n(-c3ccc(F)cc3)c2=O)cs1` [Example 43, N-(4-((2-amino-3-(3-(1-methylpiperidin-4-yl)prop-1-yn-1-yl)pyridin-4-yl)oxy)-3-fluorophenyl)-3-(4-fluorophenyl)-1-((2-methylthiazol-4-yl)methyl)-2,4-dioxo-1,2,3,4-tetrahydropyrimidine-5-carboxamide], for which the IC50 against c-MET, against AXL and on MER was less than 10 nM in each case.

Regarding `Nc1nccc(Oc2ccc(NC(=O)c3c[nH]c(=O)n(-c4ccc(F)cc4)c3=O)cc2F)c1C#CCC1CCNCC1` [Example 53, N-(4-(2-amino-3-(3-(piperidin-4-yl)prop-1-ynyl)pyridin-4-yloxy)-3-fluorophenyl)-3-(4-fluorophenyl)-2,4-dioxo-1,2,3,4-tetrahydropyrimidine-5-carboxamide], the IC50 at c-MET is less than 100 nM; at AXL it was less than 10 nM; on MER, less than 10 nM.

In the case of `CN1CCN(C(C)(C)C#Cc2c(Oc3ccc(NC(=O)c4cn(CC(=O)N(C)C)c(=O)n(-c5ccc(F)cc5)c4=O)cc3F)ccnc2N)CC1` [Example 36, N-(4-((2-amino-3-(3-methyl-3-(4-methylpiperazin-1-yl)but-1-yn-1-yl)pyridin-4-yl)oxy)-3-fluorophenyl)-1-(2-(dimethylamino)-2-oxoethyl)-3-(4-fluorophenyl)-2,4-dioxo-1,2,3,4-tetrahydropyrimidine-5-carboxamide], the IC50 was less than 10000 nM against c-MET, less than 10000 nM at AXL and less than 1000 nM against MER.

For the compound `COCCN1CCN(C(=O)C#Cc2c(Oc3ccc(NC(=O)c4cn(C(C)C)c(=O)n(-c5ccc(F)cc5)c4=O)cc3F)ccnc2N)CC1` [Example 2, N-(4-(2-amino-3-(3-(4-(2-methoxyethyl)piperazin-1-yl)-3-oxoprop-1-ynyl)pyridin-4-yloxy)-3-fluorophenyl)-3-(4-fluorophenyl)-1-isopropyl-2,4-dioxo-1,2,3,4-teterahydropyrimidine-5-carboxamide], the IC50 on c-MET, at AXL and against MER was less than 10 nM throughout.

Turning to `CC(C)n1cc(C(=O)Nc2ccc(Oc3ccnc(N)c3C#CC(=O)N3CCNCC3)c(F)c2)c(=O)n(-c2ccc(F)cc2)c1=O` [Example 1, N-(4-(2-amino-3-(3-oxo-3-(piperazin-1-yl)prop-1-ynyl)pyridin-4-yloxy)-3-fluorophenyl)-3-(4-fluorophenyl)-1-isopropyl-2,4-dioxo-1,2,3,4-tetrahydropyrimidine-5-carboxamide], the IC50 at c-MET, on AXL and against MER was less than 10 nM in each case.

As to `CCCn1cc(C#Cc2c(Oc3ccc(NC(=O)c4cn(C(C)C)c(=O)n(-c5ccc(F)cc5)c4=O)cc3F)ccnc2N)cn1` [Example 13, N-(4-(2-amino-3-((1-propyl-1H-pyrazol-4-yl)ethynyl)pyridin-4-yloxy)-3-fluorophenyl)-3-(4-fluorophenyl)-1-isopropyl-2,4-dioxo-1,2,3,4-tetrahydropyrimidine-5-carboxamide], the IC50 on c-MET is less than 1000 nM; against AXL, less than 10 nM; on MER it was less than 10 nM.

Turning to `C=CCn1cc(C(=O)Nc2ccc(Oc3ccnc(N)c3C#CCC3CCNCC3)c(F)c2)c(=O)n(CC=C)c1=O` [Example 71, 1,3-dialyl-N-(4-(2-amino-3-(3-(piperidin-4-yl)prop-1-ynyl)pyridin-4-yloxy)-3-fluorophenyl)-2,4-dioxo-1,2,3,4-tetrahydropyrimidine-5-carboxamide], the IC50 on c-MET was less than 100 nM; on AXL it was less than 100 nM; against MER, less than 10 nM.

Turning to `C=CCn1cc(C(=O)Nc2ccc(Oc3ccnc(N)c3C#CC(C)(C)N3CCOCC3)c(F)c2)c(=O)n(CC=C)c1=O` [Example 70, 1,3-diallyl-N-(4-(2-amino-3-(3-methyl-3-morpholinobut-1-ynyl)pyridin-4-yloxy)-3-fluorophenyl)-2,4-dioxo-1,2,3,4-tetrahydropyrimidine-5-carboxamide], the IC50 against c-MET is less than 1000 nM; at AXL it was less than 1000 nM; against MER, less than 10 nM.
